Test results from patent US6384061B1, “Hydantoin compounds and methods related thereto” (LG Chemical Ltd., priority 2000, dated 2002).

How the values were obtained:
[1] = target: T1, Geranylgeranyl transferase (Bos taurus, UniProt P29702+Q5EAD5); assay: Geranylgeranyl transferase inhibiting activity (geranylgeranyl pyrophosphate, Ras-CVIL substrate); format: biochemical; conditions: geranylgeranyl transferase purified from bovine brain, read-out: GGtase IC50
T1 construct: Geranylgeranyl transferase was purified from bovine brain; from tissue; host or cells: bovine brain
Procedure: To evaluate the selective enzyme inhibiting activity of the compound according to the present invention, inhibiting activity on geranylgeranyl transferase was measured. Geranylgeranyl transferase was purified from bovine brain with the method modified from Schber's method(Schber et al., J. Biol. Chem. 1990, 265, 14701). and substantially the same experiment as that of farnesyl transferase was performed using geranylgeranyl pyrophosphate and Ras-CVIL substrate protein under the similar condition to farnesyl transferase reaction.

[2] = test system: intracellular Ras farnesyl transferase, Rat2 cell line; assay: Intracellular Ras farnesyl transferase inhibiting activity in transformed Rat2 cells (35S-methionine labelling, Y13-259 immunoprecipitation, SDS-PAGE); format: cell-based; conditions: Rattus norvegicus; transformed Rat2 fibroblast cell line; concentration inhibiting 50% of farnesyl binding of Ras protein; read-out: Ftase CIC50
Procedure: In the present experiment, Rat2 cell line which expresses C-Harvey-Ras protein having transforming activity and Rat2 cell line(Korean patent application No. 97-14409) which is transformed with fused protein of H-Ras substituted with polybasic lysine domain at C-terminus of K-Ras were used. The experiment was performed by the modified Declue's method(Declue. J. E. et al., Cancer Research, 1991. 51, 712). Hereinafter, the experimental method will be described in more detail.
3×10^5 cells of transformed Rat2 fibroblast cell line were sprayed on 60 mm cell cultivation dish and cultivated for 48 hours in a cell incubator at 37° C. and after 50% or more of density was reached, it was treated with a reagent. The compound according to the present invention dissolved in dimethylsulfoxide(DMSO) was used as the reagent. 1% of dimethylsulfoxide was used in both control and experimental groups. After 4 hours from the treatment of the reagent, methionine labeled with 150 μCi of radioactive isotope, ^35S per 1 ml of medium, was added and after cultivating for 20 hours, the cells were washed with physiological saline water. The cells were lysed using 1 ml of cool cell lysis buffer solution(50 mM of Sodium Herpiss buffer solution containing 5 mmol of magnesium chloride. 1 mmol of DTT, 1% NP 40, 1 mmol of EDTA, 1 mmol of PMSF, 2 μmol of leupeptin, 2 μmol of pepstatin A and 2 μmol of antipain) and the supernatant was obtained by high-velocity centrifugation of 12,000 g×5 minutes. The amount of the labeled radioisotope of the supernatent was measured and standardized to obtain a quantitative result in immunoprecipitation reaction and then. Y13-259, monoclonal antiboby specifically binding to Ras protein(Furth, M. E. et al., J. Virol, 1982, 43, 294) was added and reacted for 15 hours at 4° C. Protein A bound to goat anti-murine Immunoglobulin antibody-agarose suspension was added to the solution and reacted for 1 hour at 4° C. and then, to remove unspecific binding product, immunoprecipitates were washed with buffer solution(50 mM Tris chloride buffer solution containing 50 mmol of sodium chloride, 0.5% of sodium dioxycolate, 0.5% of NP 40 and 0.1% of SDS). The precipitates were boiled in reagent buffer solution for electrophoresis and then, electrophoresis was performed using 13.5% of SDS polyacrylamide gel. After electrophoresis, the gel was fixed and dried. Then, the gel was exposed to X-ray film, developed and printed. From the result of the experiment, intensities of band of protein with and without farnesyl of Ras protein were measured, and the concentration of reagent inhibiting 50% of farnesyl binding was defined as CIC50, an intracellular Ras farnesyl transferase inhibiting activity.

[3] = target: T2, Ras farnesyl transferase (Homo sapiens, UniProt P49354+P49356); assay: Ras farnesyl transferase inhibiting activity (filter-binding, tritium-farnesylpyrophosphate, Ras-CVLS substrate); format: biochemical; conditions: recombinant Ras farnesyl transferase, 30 minutes at 37° C., read-out: Ftase IC50
T2 construct: made in house
Procedure: The enzyme reaction was performed in 50 μl of 50 mM Sodium HEPES buffer solution containing 25 mmol of potassium chloride. 25 mmol of magnesium chloride, 10 mmol of DTT and 50 μmol of zinc chloride. 1.5 μmol of Ras substrate protein, 0.15 μmol of tritium-farnesylpyrophosphate and 4.5 nmol of farnesyl transferase were used.
More specifically, in the initial step, farnesyl transferase was added to the above buffer solution, reaction was maintained for 30 minutes at 37° C. and then the reaction was stopped by adding 1 ml of ethanol solution containing 1M HCl. The formed precipitates were adsorbed to GF/B filter using Hopper harvestor(Hopper #225V) for filter-binding, washed with ethanol, and then radioactivity of the dried filter was measured using LKB β counter. Enzyme titer was measured in the unsaturated state of substrate where the concentrations of Ras substrate protein and farnesyl transferase have quantitative relationship. Enzyme inhibiting activity was measured using less than 5% of total reaction solution of the compound according to the present invention dissolved in dimethylsulfoxide(DMSO) solution as a reagent. Enzyme inhibiting activity was represented by percentage of the amount of the farnesyl incorporated with the reagent to that without the reagent.

SMILES	IC50 [1] [µM]	IC50 [3] [µM]	IC50 [2] [µM]
COC(=O)C(CCSC)NC(=O)CN1C(=O)N(Cc2cncn2Cc2ccc(C#N)cc2)C(=O)C1(C)c1cccc2ccccc12 (stereo not drawn) [Compound 7, 2-(2-{3-[3-(4-cyano-benzyl)-imidazol-4-yl-methyl]-5-methyl-5-naphthalen-1-yl-2,4-dioxo-imidazolidin-1-yl}-acetylamino)-4-methylsulfanyl-butyric acid methyl ester]	> 10	0.18	< 20
CC1(c2ccccc2)C(=O)N(CCCn2ccnc2)C(=O)N1Cc1cccc(C#N)c1 (stereo not drawn) [Compound 71, 3-[3-(3-imidazol-1-yl-propyl)-5-methyl-5-phenyl-2,4-dioxo-imidazolidin-1-ylmethyl]-benzonitrile]	> 10	7	< 20
CC1(c2cccc3ccccc23)C(=O)N(CCCc2cncn2Cc2ccc(C#N)cc2)C(=O)N1Cc1cccc(C#N)c1 (stereo not drawn) [Compound 54, 4-(5-{3-[3-(3-cyano-benzyl)-4-methyl-4-naphthalen-1-yl-2,5-dioxo-imidazolidin-1-yl]-propyl}-imidazol-1-ylmethyl)-benzonitrile]	> 10	0.05	< 20
CC1(c2cccc3ccccc23)C(=O)N(CCCn2ccnc2)C(=O)N1Cc1ccc(S(C)(=O)=O)cc1 (stereo not drawn) [Compound 28, 3-(3-imidazol-1-yl-propyl)-1-(4-methylsulfonyl-benzyl)-5-methyl-5-naphthalen-1-yl-imidazolidin-2,4-dione]	> 10	1.1	< 20
COC(=O)[C@H](CCSC)NC(=O)CC1C(=O)N(Cc2cncn2Cc2ccc(C#N)cc2)C(=O)N1Cc1cccc2ccccc12 (stereo partly drawn) [Compound 85, (2S)-(2-{1-[3-(4-cyano-benzyl)-3H-imidazol-4-ylmethyl]-3-naphthalen-1-ylmethyl-2,5-dioxo-imidazolidin-4-yl}-acetamino)-4-methylsulfanyl-butyric acid methyl ester]	> 10	0.2	< 50

Now from value to compound, other results behind:

IC50 [1] [µM]	IC50 [3] [µM]	SMILES	IC50 [2] [µM]
> 10	0.061	CSCCC(NC(=O)CN1C(=O)N(Cc2cnc[nH]2)C(=O)C1(C)c1cccc2ccccc12)C(=O)O (stereo not drawn) [Compound 6, 2-{2-[3-(3H-imidazol-4-yl-methyl)-5-methyl-5-naphthalen-1-yl-2,4-dioxo-imidazolidin-1-yl]-acetylamino}-4-methylsulfanyl-butyric acid]	7.3
> 10	0.2	CC1(c2cccc3ccccc23)C(=O)N(CCCn2ccnc2)C(=O)N1Cc1ccc(C(=O)O)cc1 (stereo not drawn) [Compound 39, 4-[3-(3-imidazol-1-yl-propyl)-5-methyl-5-naphthalen-1-yl-2,4-dioxo-imidazolidin-1-ylmethyl]-benzoic acid]	< 20
> 10	0.7	COc1ccc(C(=O)N2C(=O)N(CCCn3ccnc3)C(=O)C2(C)c2cccc3ccccc23)cc1 (stereo not drawn) [Compound 64, 3-(3-imidazol-1-yl-propyl)-1-(4-methoxy-benzoyl)-5-methyl-5-naphthalen-1-yl-imidazolidin-2,4-dione]	< 20
> 10	1.7	CC1(c2cccc3ccccc23)C(=O)N(CCCn2ccnc2)C(=O)N1Cc1cccc(C(F)(F)F)c1 (stereo not drawn) [Compound 22, 1-(3-trifluoromethyl-benzyl)-3-(3-imidazol-1-yl-propyl)-5-methyl-5-naphthalen-1-yl-imidazolidin-2,4-dione]	< 20
> 10	0.25	COC(=O)c1ccc(CN2C(=O)N(CCCn3ccnc3)C(=O)C2(C)c2cccc3ccccc23)cc1 (stereo not drawn) [Compound 38, 4-[3-(3-imidazol-1-yl-propyl)-5-methyl-5-naphthalen-1-yl-2,4-dioxo-imidazolidin-1-ylmethyl]-benzoic acid methyl ester]	< 20
